molecular target: Bet BRD4 full length bromo-domain protein (Homo sapiens, UniProt O60885); experiment: Bet bromodomain TR-FRET assay (displacement of acetyl histone peptide); format: binding; conditions: Bet BRD4 full length bromodomain protein, 300 nM acetyl histone peptide substrate, read-out: IC50

IC50	Compound
< 600 nM	CC(C)Oc1ccccc1S(=O)(=O)Nc1cc(OC2CCN(C)CC2)c2c(c1)C1(CCC1)C(=O)N2 [Compound-184, 2-Isopropoxy-N-(7′-((1-methylpiperidin-4-yl)oxy)-2′-oxospiro[cyclobutane-1,3′-indolin]-5′-yl)benzenesulfonamide]
< 600 nM	CCN(C)CCOc1cc(NS(=O)(=O)c2ccccc2OC)cc2c1NC(=O)C21CCC1 [compound 196, N-(7′-(2-(ethyl(methyl)amino)ethoxy)-2′-oxospiro[cyclobutane-1,3′-indolin]-5′-yl)-2-methoxybenzenesulfonamide]
< 600 nM	CN1CCC(Oc2cc(NS(=O)(=O)c3ccccc3F)cc3c2NC(=O)C32CCC2)CC1 [compound 128]
< 600 nM	O=C1Nc2c(NC3CCOCC3)cc(NS(=O)(=O)c3ccc(F)cc3F)cc2C12CCC2 [Compound 18, 2,4-Difluoro-N-(2′-oxo-7′-((tetrahydro-2H-pyran-4-yl)amino)spiro[cyclobutane-1,3′-indolin]-5′-yl)benzenesulfonamide]
600 to 1000 nM	CC(=O)Nc1cc(NS(=O)(=O)c2ccc(F)cc2F)cc2c1NC(=O)C21CCC1 [Compound 63, N-(5′-((2,4-difluorophenyl)sulfonamido)-2′-oxospiro[cyclobutane-1,3′-indolin]-7′-yl)acetamide]
< 600 nM	C=C(c1nccs1)c1cc(NS(=O)(=O)c2ccccc2OC)cc2c1NC(=O)C21CCC1 [Compound 172, 2-Methoxy-N-(2′-oxo-7′-(1-(thiazol-2-yl)vinyl)spiro[cyclobutane-1,3′-indolin]-5′-yl)benzenesulfonamide]
< 600 nM	CN1CCC(NC(=O)c2cc(NS(=O)(=O)c3ccc(F)cc3F)cc3c2NC(=O)C32CCC2)CC1 [Compound 56, 5′-(2,4-Difluorophenylsulfonamido)-N-(1-methylpiperidin-4-yl)-2′-oxospiro[cyclobutane-1,3′-indoline]-7′-carboxamide]
> 1000 nM	CCN(c1cc(OC2CCN(C)CC2)c2c(c1)C1(CCC1)C(=O)N2)S(=O)(=O)c1ccccc1OC [compound 179, N-ethyl-2-methoxy-N-(7′-((1-methylpiperidin-4-yl)oxy)-2′-oxospiro[cyclobutane-1,3′-indolin]-5′-yl)benzenesulfonamide]
< 600 nM	O=C1Nc2c(OC3CCNCC3)cc(NS(=O)(=O)c3ccc(Cl)cc3F)cc2C12CCC2 [Compound-197, 4-Chloro-2-fluoro-N-(2′-oxo-7′-(piperidin-4-yloxy)spiro-[cyclobutane-1,3′-indolin]-5′-yl)benzene sulfonamide]
< 600 nM	CN1CCC(NC(=O)c2cc(NS(=O)(=O)c3cc(F)ccc3F)cc3c2NC(=O)C32CCC2)CC1 [Compound 86, 5′-(2,5-Difluorophenylsulfonamido)-N-(1-methylpiperidin-4-yl)-2′-oxospiro[cyclobutane-1,3′-indoline]-7′-carboxamide]
< 600 nM	CN1CCC(CCNc2cc(NS(=O)(=O)c3ccc(F)cc3F)cc3c2NC(=O)C32CCC2)CC1 [Compound 28, 2,4-Difluoro-N-(7′-((2-(1-methylpiperidin-4-yl)ethyl)amino)-2′-oxospiro[cyclobutane-1,3′-indolin]-5′-yl)benzenesulfonamide]
< 600 nM	O=C1Nc2c(OCc3ccc(F)cn3)cc(NS(=O)(=O)c3ccc(Cl)cc3F)cc2C12CCC2 [Compound 147, 4-Chloro-2-fluoro-N-(7′-((5-fluoropyridin-2-yl)methoxy)-2′-oxospiro[cyclobutane-1,3′-indolin]-5′-yl)benzenesulfonamide]
< 600 nM	O=C1Nc2c(NCc3ccncc3)cc(NS(=O)(=O)c3ccc(F)cc3F)cc2C12CCC2 [Compound 23, 2,4-Difluoro-N-(2′-oxo-7′-((pyridin-4-ylmethyl)amino)spiro[cyclobutane-1,3′-indolin]-5′-yl)benzenesulfonamide]
> 1000 nM	COc1cccc(OC)c1S(=O)(=O)Nc1cc(OC2CCN(C)CC2)c2c(c1)C1(CCC1)C(=O)N2 [compound 186, 2,6-Dimethoxy-N-(7′-((1-methylpiperidin-4-yl)oxy)-2′-oxospiro[cyclobutane-1,3′-indolin]-5′-yl)benzenesulfonamide]
< 600 nM	COc1ccccc1S(=O)(=O)Nc1cc(OC2CCCN(C)CC2)c2c(c1)C1(CCC1)C(=O)N2 (stereo not shown) [Compound 140, 2-Methoxy-N-(7′-((1-methylazepan-4-yl)oxy)-2′-oxospiro[cyclobutane-1,3′-indolin]-5′-yl)benzenesulfonamide]
< 600 nM	COc1ccccc1S(=O)(=O)Nc1cc(OC[C@@H]2CCCN2C)c2c(c1)C1(CCC1)C(=O)N2 [Compound 139, (S)-2-methoxy-N-(7′-((1-methylpyrrolidin-2-yl)methoxy)-2′-oxospiro[cyclobutane-1,3′-indolin]-5′-yl)benzenesulfonamide]
600 to 1000 nM	CC(c1ccccc1)c1cc(NS(=O)(=O)c2ccc(F)cc2F)cc2c1NC(=O)C21CCC1 (stereo not shown) [Compound 126, 2,4-Difluoro-N-(2′-oxo-7′-(1-phenylethyl)spiro[cyclobutane-1,3′-indolin]-5′-yl)benzenesulfonamide]
< 600 nM	O=C1C=C(Nc2cc(NS(=O)(=O)c3ccc(F)cc3F)cc3c2NC(=O)C32CCC2)CCN1 [Compound 76, 2,4-Difluoro-N-(2′-oxo-7′-((6-oxo-1,2,3 ,6-tetrahydropyridin-4-yl)-amino)spiro[cyclobutane-1,3′-indolin]-5′-yl)benzenesulfonamide]
< 600 nM	COc1ccccc1S(=O)(=O)Nc1cc(OC2CCS(=O)(=O)CC2)c2c(c1)C1(CCC1)C(=O)N2 [Compound 143, N-(7′-((1,1-dioxidotetrahydro-2H-thiopyran-4-yl)oxy)-2′-oxospiro[cyclobutane-1,3′-indolin]-5′-yl)-2-methoxybenzenesulfonamide]
< 600 nM	CN1CCC(NC(=O)c2cc(NS(=O)(=O)c3ccc(F)cc3F)cc3c2NC(=O)C32CCC2)C1 (stereo not shown) [Compound 52, 5′-(2,4-Difluorophenylsulfonamido)-N-(1-methylpyrrolidin-3-yl)-2′-oxospiro[cyclobutane-1,3′-indoline]-7′-carboxamide]

Second part, the molecule before the results:

Compound	IC50
COc1ccccc1S(C)(=O)=Nc1cc(NC2CCN(C)CC2)c2c(c1)C1(CCC1)C(=O)N2 (stereo not shown) [Compound-183, 5′-(((2-Methoxyphenyl)(methyl)(oxo)-l6-sulfanylidene)amino)-7′-((1-methylpiperidin-4-yl)amino)spiro[cyclobutane-1,3′-indolin]-2′-one]	< 600 nM
COc1ccccc1S(=O)(=O)Nc1cc(OCCN(C)C)c2c(c1)C1(CCC1)C(=O)N2 [Compound 162, N-(7′-(2-(dimethylamino)ethoxy)-2′-oxospiro[cyclobutane-1,3′-indolin]-5′-yl)-2-methoxybenzenesulfonamide]	< 600 nM
O=C1Nc2c(Oc3cc[nH]c(=O)c3)cc(NS(=O)(=O)c3ccc(Cl)cc3F)cc2C12CCC2 [Compound-212, 4-Chloro-2-fluoro-N-(2′-oxo-7′-((2-oxo-1,2-dihydropyridin-4-yl)oxy)spiro[cyclobutane-1,3′-indolin]-5′-yl)benzenesulfonamide]	< 600 nM
CN1CCC(Oc2cc(NS(=O)(=O)c3ccc(F)cc3F)cc3c2NC(=O)C32CCC2)CC1 [Compound 171]	< 600 nM
CCN1CCC(Nc2cc(NS(=O)(=O)c3ccc(F)cc3F)cc3c2NC(=O)C32CCC2)CC1 [Compound 24, N-(7′-((1-ethylpiperidin-4-yl)amino)-2′-oxospiro[cyclobutane-1,3′-indolin]-5′-yl)-2,4-difluorobenzenesulfonamide]	< 600 nM
CC(C)(O)C1CCN(C(=O)c2cc(NS(=O)(=O)c3ccc(F)cc3F)cc3c2NC(=O)C32CCC2)CC1 [Compound 59, 2,4-Difluoro-N-(7′-(4-(2-hydroxypropan-2-yl)piperidine-1-carbonyl)-2′-oxospiro[cyclobutane-1,3′-indolin]-5′-yl)benzenesulfonamide]	> 1000 nM
COc1ccccc1S(=O)(=O)Nc1cc(OC2CCN(C)CC2)c2c(c1Cl)C1(CCC1)C(=O)N2 [Compound-215, N-(4′-chloro-7′-((1-methylpiperidin-4-yl)oxy)-2′-oxospiro-[cyclobutane-1,3′-indolin]-5′-yl)-2-methoxybenzenesulfonamide]	600 to 1000 nM
COc1ccccc1S(=O)(=O)Nc1cc(C(C)c2nccs2)c2c(c1)C1(CCC1)C(=O)N2 (stereo not shown) [Compound 177, 2-Methoxy-N-(2′-oxo-7′-(1-(thiazol-2-yl)ethyl)spiro[cyclobutane-1,3′-indolin]-5′-yl)benzenesulfonamide]	< 600 nM
O=C1CCC(Nc2cc(NS(=O)(=O)c3ccc(F)cc3F)cc3c2NC(=O)C32CCC2)CN1 (stereo not shown) [Compound 33, 2,4-Difluoro-N-(2′-oxo-7′-((6-oxopiperidin-3-yl)amino)spiro[cyclobutane-1,3′-indolin]-5′-yl)benzenesulfonamide]	< 600 nM
O=C1Nc2c(-c3ccc4c(c3)CNCC4)cc(NS(=O)(=O)c3ccc(F)cc3F)cc2C12CCC2 [Compound 88, 2,4-Difluoro-N-(2′-oxo-7′-(1,2,3,4-tetrahydroisoquinolin-7-yl)spiro-[cyclobutane-1,3′-indolin]-5′-yl)benzenesulfonamide]	< 600 nM
CN1CCC(Oc2cc(NC(=O)c3ccc(Cl)cc3F)cc3c2NC(=O)C32CCC2)CC1 [compound 224, 4-Chloro-2-fluoro-N-(7′-((1-methylpiperidin-4-yl)oxy)-2′-oxospiro[cyclobutane-1,3′-indolin]-5′-yl)benzamide]	> 1000 nM
O=C(Nc1cc(Br)c2c(c1)C1(CCC1)C(=O)N2)c1cccnc1N1CCOCC1 [Compound-222, N-(7′-bromo-2′-oxospiro[cyclobutane-1,3′-indolin]-5′-yl)-2-morpholinonicotinamide]	> 1000 nM
CN1CCC(NC(=O)c2cc(NS(=O)(=O)c3ccc(Cl)cc3F)cc3c2NC(=O)C32CCC2)CC1 [Compound-211, 5′-((4-Chloro-2-fluorophenyl)sulfonamido)-N-(1-methylpiperidin-4-yl)-2′-oxospiro[cyclobutane-1,3′-indoline]-7′-carboxamide]	600 to 1000 nM
COc1ccccc1S(=O)(=O)Nc1cc(OCC2COCCN2)c2c(c1)C1(CCC1)C(=O)N2 (stereo not shown) [Compound-203, 2-Methoxy-N-(7′-(morpholin-3-ylmethoxy)-2′-oxospiro[cyclobutane-1,3′-indolin]-5′-yl)benzenesulfonamide]	< 600 nM
